Test results reported in patent publication US10385036B2, “Sulfonamide-substituted indole modulators of RORC2 and methods of use thereof” (Pfizer Inc., priority 2015, dated 2019).

How the values were obtained:
[1] = biological target: RORC2 ligand binding domain (6-His-RORC2 LBD) (Homo sapiens (Human), UniProt P51449); assay: Assay of co-activator recruitment by TR-FRET; assay type: biochemical; details: 6-His-RORC2 LBD / biotin-coactivator peptide SRC1-2 interaction, 3 hr room temperature
Protocol: The activity of compound of the invention can be determined by a co-activator recruitment by TR-FRET (time-resolved fluorescence resonance energy transfer) assay. […] When receptor and coactivator are bound to each other, upon shining light at 337 nm on the sample, the Europium emits fluorescence that excites APC due to close proximity (FRET) and this signal is measured at 665 nm. Due to the long lasting fluorescence emission of Europium, the non-specific, short-lived fluorescence is time-resolved (TR) from the fluorescence of interest. Inhibitors of the interaction of receptor and coactivator peptide are detected by a decrease in TR-FRET signal.
Specifically, in one embodiment the aforementioned assay was performed as outlined below. The assay was carried out in black polystyrene, 384-well plates in a total assay volume of 50.5 μL. The assay buffer contained 50 mM TRIS-HCL pH 7.5, 1 mM NaCl, 2 mM MgCl2, 0.5 mg/mL bovine serum albumin, and 5 mM dithiothreitol.

[2] = test system: IL-17 production from human Th17 cells; assay: Assay of IL-17 production from human Th17 cells; assay type: cell-based; details: 144 h; IL-17A in supernatant by ELISA (MSD) after 6 days, human CD4+ T cells differentiated into Th17; read-out: IC50
Protocol: The activity of compound of the invention can be also be determined by an IL-17 production from human Th17 cells assay. In general, this assay measures blockade of IL-17 production, the signature cytokine of T helper 17 (Th17) cells, by compounds. Purified human CD4+ T cells are stimulated with anti-CD3+anti-CD28 and incubated with a cytokine cocktail that induce their differentiation into Th17 in the absence or presence of various concentrations of compound. After 6 days, IL-17A concentration is measured in the cell culture supernatant with an ELISA kit (MSD).
Preparation of human CD4+ T cells. CD4+ T cells were purified from buffy coats from healthy donors (obtained from Massachusetts General Hospital) by negative selection the following procedure: Mixing 25 mL of blood with 1 mL of Rosette Sep CD4+ T cell enrichment cocktail (StemCell Technologies) followed by application of a layer of 14 mL Ficoll Paque Plus (Amersham GE Healthcare) and subsequent centrifugation at 1200 g for 20 min at room temperature. The Ficoll layer was then harvested and washed with phosphate saline buffer containing 2% (v/v) fetal bovine serum and cells were resuspended with RPMI medium containing 10% (v/v) fetal bovine serum and 10% (v/v) DMSO, frozen and kept in LN2 until used.
[…] Serial dilutions of compounds of the invention are prepared at 10× final concentration in X-Vivo15 medium containing 3% (v/v) DMSO.
On the second day of the assay, a 384-well tissue culture plate was coated with 10 μg/mL anti-hCD3 (eBioscience) at 50 μL/well. After 2 hr at 37° C., the supernatant is discarded and the coated plates are kept in a sterile tissue culture hood.
The cytokine plus anti-CD28 cocktail with CD4+ cells is prepared such that the cocktail is diluted 10-fold and cell density is 0.22×10^6/mL. The mixture is incubated 1 hr at 37° C.
90 μL (20,000 cells) dispensed per well in the anti-hCD3 coated plate prepared as noted above.
10 μL 10× compound is added per well (final DMSO=0.3%) from the compound plate that was previously prepared, followed by 6 days of incubation in a tissue culture vessel in a humidified chamber at 37° C. and 5% CO2.
Measurement is carried out in a Sector Imager 6000 by the same manufacturer. Signal units from the instrument are converted to pg/mL using a calibration curve with known amounts of IL-17A. IC50 values of test compounds (Table 2) are determined by the non-linear regression analysis of dose response curves.

Sequence of RORC2 ligand binding domain (6-His-RORC2 LBD) (P51449 269-508): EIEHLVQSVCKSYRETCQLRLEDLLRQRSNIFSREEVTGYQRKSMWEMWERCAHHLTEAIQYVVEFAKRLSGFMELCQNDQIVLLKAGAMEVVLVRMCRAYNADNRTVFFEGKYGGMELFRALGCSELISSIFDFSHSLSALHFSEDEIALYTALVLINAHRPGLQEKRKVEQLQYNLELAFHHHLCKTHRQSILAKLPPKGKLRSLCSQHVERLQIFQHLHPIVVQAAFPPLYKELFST

| Compound | IC50 [1] [nM] | IC50 [2] [nM] |
| --- | --- | --- |
| CC(C)CC(=O)N1CCC(c2cn(C)c3ccc(NS(=O)(=O)c4ccc(F)cc4)cc23)CC1 [Example 12, 4-Fluoro-N-(1-methyl-3-(1-(3-methylbutanoyl)piperidin-4-yl)-1H-indol-5-yl)benzenesulfonamide] | 7.8 | 127 |
| Cn1cc(C2CCN(C(=O)CC3CC3)CC2)c2cc(NS(=O)(=O)c3ccc(F)cc3)ccc21 [Example 13, N-(3-(1-(2-Cyclopropylacetyl)piperidin-4-yl)-1-methyl-1H-indol-5-yl)-4-fluorobenzenesulfonamide] | 16.9 | 310 |
| COc1cc(S(=O)(=O)Nc2ccc3c(c2)c(C2CCN(C(=O)C(C)C)CC2)cn3C)ccc1F [Example 22, 4-fluoro-N-(3-(1-isobutyrylpiperidin-4-yl)-1-methyl-1H-indol-5-yl)-3-methoxybenzenesulfonamide] | 10.6 | 267 |
| Cc1noc(C)c1S(=O)(=O)Nc1ccc2c(c1)c(C1CCN(C(=O)[C@H](C)C(C)(C)C)CC1)cn2C [Example 30, (R)-3,5-dimethyl-N-(1-methyl-3-(1-(2,3,3-trimethylbutanoyl)piperidin-4-yl)-1H-indol-5-yl)isoxazole-4-sulfonamide] | 10 | 19.8 |

Stronger by IC50 [1], values ahead:

| IC50 [1] [nM] | IC50 [2] [nM] | Compound |
| --- | --- | --- |
| 6.8 | 189 | Cc1cccc(F)c1C(=O)N1CCC(c2cn(C)c3ccc(NS(=O)(=O)c4ccc(F)cc4)cc23)CC1 [Example 15, 4-fluoro-N-(3-(1-(2-fluoro-6-methylbenzoyl)piperidin-4-yl)-1-methyl-1H-indol-5-yl)benzenesulfonamide] |
| 5.9 | 114 | Cn1cc(C2CCN(C(=O)C3CCCC3)CC2)c2cc(NS(=O)(=O)c3ccccc3F)ccc21 [Example 17, N-(3-(1-(cyclopentanecarbonyl)piperidin-4-yl)-1-methyl-1H-indol-5-yl)-2-fluorobenzenesulfonamide] |
| 3.1 | 53.8 | CC(C)[C@H](C)C(=O)N1CCC(c2cn(C)c3ccc(NS(=O)(=O)c4ccc(F)cc4)cc23)CC1 [Example 16, (S)-N-(3-(1-(2,3-dimethylbutanoyl)pipendin-4-yl)-1-methyl-1H-indol-5-yl)-4-fluorobenzenesulfonamide] |
| 2.4 | 26 | C[C@@H](C(=O)N1CCC(c2cn(C)c3ccc(NS(=O)(=O)c4ccc(F)cc4)cc23)CC1)C12CC(C1)C2 [Example 31, (R)-N-(3-(1-(2-(bicyclo[1.1.1]pentan-1-yl)propanoyl)piperidin-4-yl)-1-methyl-1H-indol-5-yl)-4-fluorobenzenesulfonamide] |
| 1.3 | 5.1 | Cc1nn(C)c(C)c1S(=O)(=O)Nc1ccc2c(c1)c(C1CCN(C(=O)[C@H](C)C(C)(C)C)CC1)cn2C [Example 26, (R)-1,3,5-trimethyl-N-(1-methyl-3-(1-(2,3,3-trimethylbutanoyl)piperidin-4-yl)-1H-indol-5-yl)-1H-pyrazole-4-sulfonamide] |
